# Laboratory results as given in patent US20240398817A1, “CARDIO- AND RENOSAFE ANTIDIABETIC THERAPY” (priority 2018, published 2024).
# “Also recorded” adds a separate entry of the source.
# Tested on: patients with type 2 diabetes at high vascular risk
# Assay: Cardiovascular and Renal Outcomes Trial: linagliptin 5 mg once daily vs placebo on top of standard of care
# Assay type: in vivo
# Conditions: for Albuminuria progression: patients, %: of 2162 analysed; for Hospitalisation for heart failure vs placebo, in words: subgroup without insulin use at baseline
# Experimental: The effect of linagliptin on cardiovascular risk in adult patients with type 2 diabetes mellitus and with increased CV risk evidenced by a history of established macrovascular or renal disease (e.g. as defined herein) was evaluated in a multi-center, multi-national, randomized, double-blind parallel group trial. The trial compared the risk of experiencing a major adverse cardiovascular event (MACE) between linagliptin and placebo when these were added to and used concomitantly with standard of care treatments for diabetes (HbA1c), cardiovascular risk factors and renal disease.
# The primary endpoint in this trial was the time to first occurrence of three point (3P) MACE. A major adverse cardiac event was defined as a cardiovascular death or a nonfatal myocardial infarction (MI) or a nonfatal stroke. The statistical analysis plan tested for non-inferiority for the occurrence of (3P) MACE. […] The secondary endpoint was a renal composite, defined as renal death or sustained end stage renal disease or sustained decrease of 40% or more in eGFR.
# Type 2 diabetes patient with insufficient glycemic control (naïve or pre-treated with any antidiabetic background medication, excluding treatment with GLP-1 receptor agonists, DPP-4inhibitors or SGLT-2 inhibitors if ≥consecutive 7 days, e.g. having HbA1c 6.5-10%), and high risk of cardiovascular events, e.g. defined by: • albuminuria (micro or macro) and previous macrovascular disease: e.g. defined according to Condition I as indicated below; • and/or • impaired renal function: e.g. as defined according to Condition II as indicated below;
# Background and aims: People with type 2 diabetes (T2D) are at increased risk for hospitalization for heart failure (hHF), particularly in the setting of concomitant cardiovascular (CV) and/or kidney disease. […] Here we present analyses of HF outcomes with the DPP-4 inhibitor linagliptin (LINA) vs. placebo (PBO) from a Cardiovascular and Renal Outcomes Trial assessing cardiovascular safety and renal microvascular outcome in patients with type 2 diabetes at high vascular risk, a large CV outcomes trial that enrolled participants with T2D at high risk for hHF due to concomitant CV and/or chronic kidney disease. Materials and methods: People with T2D and concomitant CV and/or kidney disease were randomized to receive LINA 5 mg, or PBO once daily (1:1), on top of standard of care. All hHF, CV outcomes, and deaths were centrally adjudicated, with individual and composite HF-related outcomes analyses comparing LINA vs. placebo. Investigator-reported HF-related adverse events, whether or not confirmed by adjudication, were also analyzed. A Cox proportional hazards model adjusting for region and history of HF was used for analyses of first events. Recurrent hHF events were analyzed using a negative binomial model.
# Methods: The present Cardiovascular and Renal Outcomes Trial randomized people with T2D and i) concomitant CV disease with UACR >30 mg/g or ii) prevalent CKD (i.e. GFR <45 ml/min/1.73m2 and/or UACR >200 mg/g) to receive the DPP-4 inhibitor linagliptin (5 mg) or placebo once daily in a double-blind fashion. The primary CV endpoint was 3P-MACE, with a key secondary kidney endpoint (adjudicated ESKD, renal death, or sustained ≥40% decrease in eGFR from baseline) and other renal outcomes (including albuminuria and eGFR slope) also assessed. Subgroups were assessed by baseline kidney function (eGFR ≥/<45 ml/min/1.73m2and eGFR ≥/<30, 45 or 60 ml/min/1.73m2).
# Adults with type 2 diabetes, HbA1c 6.5-10.0% inclusive, and high CV risk were eligible for inclusion. […] Macrovascular disease eligibility criteria was based on documented and confirmed history of myocardial infarction, coronary artery disease, stroke, carotid artery disease, or peripheral artery disease. Participants with end-stage kidney disease (ESKD), defined as eGFR <15 or requiring maintenance dialysis, were excluded.
compound,measurement,setting,value
"CC#CCn1c(N2CCC[C@@H](N)C2)nc2c1c(=O)n(Cc1nc(C)c3ccccc3n1)c(=O)n2C [Linagliptin, 1-[(4-methyl-quinazolin-2-yl)methyl]-3-methyl-7-(2-butyn-1-yl)-8-(3-(R)-amino-piperidin-1-yl)-xanthine]",Hospitalization for unstable angina: rate/1000 patient-years,in vivo,5.5 per 1000 patient years
same,"Hypersensitivity reactions, all AEs: %",in vivo,3.3%
same,"Hypersensitivity reactions, all AEs: N",in vivo,114
same,Investigator reported HF events: HR vs placebo,in vivo,0.87
same,Investigator reported HF events: events,in vivo,243
same,Investigator reported hypoglycemia: %,in vivo,29.7%
same,Investigator reported hypoglycemia: N,in vivo,1036
same,New initiation of loop diuretics or hHF: HR vs placebo,in vivo,0.95
same,New initiation of loop diuretics or hHF: participants,in vivo,330/2530
same,New introduction of loop diuretics: HR vs placebo,in vivo,0.94
same,New introduction of loop diuretics: participants,in vivo,318/2530
same,Non-cardiovascular death: %,in vivo,(3.2) %
same,Non-cardiovascular death: hazard ratio vs placebo,in vivo,1.02
same,Non-cardiovascular death: no.,in vivo,112
same,Non-cardiovascular death: rate/1000 patient-years,in vivo,14.3 per 1000 patient years
same,Non-fatal myocardial infarction: %,in vivo,(4.5) %
same,Non-fatal myocardial infarction: hazard ratio vs placebo,in vivo,1.15
same,Non-fatal myocardial infarction: no.,in vivo,156
same,Non-fatal myocardial infarction: rate/1000 patient-years,in vivo,20.6 per 1000 patient years
same,Non-fatal stroke: %,in vivo,(1.9) %
same,Non-fatal stroke: hazard ratio vs placebo,in vivo,0.88
same,Non-fatal stroke: no.,in vivo,65
same,Non-fatal stroke: rate/1000 patient-years,in vivo,8.5 per 1000 patient years
same,Pancreatic cancer: %,in vivo,0.3%
same,Pancreatic cancer: N,in vivo,11
same,Participants with ≥2 hHF events: %,in vivo,1.7%
same,Participants with ≥2 hHF events: n,in vivo,60
same,Pemphigoid (bullous pemphigoid): %,in vivo,0.2%
same,Pemphigoid (bullous pemphigoid): N,in vivo,7
same,Reduction of risk of albuminuria progression compared to placebo,in vivo,about 14%
same,Reduction of risk of microvascular renal and/or eye complications compared to placebo,in vivo,about 14%
same,"Renal death, sustained ESKD, or sustained decrease of 50% or more in eGFR from baseline: hazard ratio vs placebo",in vivo,0.98
same,"Risk of HHF regardless of baseline renal function, in words",in vivo,did not affect the risk of HHF
same,"Risk of albuminuria progression vs placebo, in words",in vivo,significantly reduced
same,"Risk of hospitalization for heart failure, in words",in vivo,no increase in the risk
same,Serious adverse events: %,in vivo,37.0%
same,Serious adverse events: N,in vivo,1293
same,Skin lesions: %,in vivo,0.1%
same,Skin lesions: N,in vivo,5
same,"Stent thrombosis, hospitalisation for peripheral vascularisation, retinopathy-related endpoints vs placebo, in words",in vivo,no significant difference
same,"Sustained decrease of 30% or more in eGFR with eGFR <60; and renal death, sustained ESRD or CV death vs placebo, in words",in vivo,no significant difference
same,Time to first event of investigator reported events or adjudicated hHF: HR vs placebo,in vivo,0.92
same,Time to first event of investigator reported events or adjudicated hHF: events,in vivo,305
same,"eGFR changes over time and transition in CKD status vs placebo, in words",in vivo,no clinically meaningful differences
same,"eGFR slope (MDRD): between-group difference vs placebo, estimate ± SE",in vivo,−0.175 ± 0.151 /year
same,"eGFR-slope, in words",in vivo,unaffected
same,hHF or all-cause mortality: HR vs placebo,in vivo,0.95
same,hHF or all-cause mortality: events,in vivo,499
same,4-point MACE: %,"in vivo, listed as linagliptin",13.3%
same,"Acute pancreatitis, adjudication confirmed: N","in vivo, listed as linagliptin",9
same,Albuminuria progression: hazard ratio (95% CI) vs placebo,"in vivo, listed as linagliptin",0.86
same,Albuminuria progression: rate/100 patient-years,"in vivo, listed as linagliptin",21.4 per 100 patient-years
same,Hospitalization for heart failure or cardiovascular death: %,"in vivo, listed as linagliptin",11.6%
same,Skin lesions: %,"in vivo, listed as linagliptin",0.2%
same,"Risk of major adverse cardiovascular events (3P-MACE) vs placebo, in words",median follow up 2.2 years,non-inferior to placebo
same,"Risk of renal outcome events vs placebo, in words",median follow up 2.2 years,did not increase the risk
same,"Risk of major adverse cardiovascular events (3P-MACE) vs placebo, in words","median follow up 2.2 years, listed as linagliptin",did not increase the risk
same,Any adverse events: N,n = 3494,2697
same,"eGFR slope (MDRD) from baseline to last value on treatment/year, estimate ± SE",n = 6740 both groups,−2.459 ± 0.106 /year
same,hHF events (first+recurrent): rate ratio vs placebo,negative binomial model,0.94
same,"Albuminuria progression: patients, %",,(35.3) %
same,"Albuminuria progression: patients, %",listed as linagliptin,35.3%
same,"Contributing to composite microvascular outcome: patients with albuminuria progression, %",of n = 3494,21.3%
same,Albuminuria progression: number of patients,patients analysed 2162 (n = 4291 both groups),763
same,"Rate of hypoglycemia compared to placebo, in words",patients taking sulfonylurea at baseline,numerically higher rate
same,Incidence of severe hypoglycaemia,patients using insulin at baseline,4.4%
same,Incidence of severe hypoglycaemia,patients using sulfonylurea at baseline,2.0%
same,"Time to onset of intensification or initiation of insulin vs placebo, in words",patients without insulin use at baseline,later
same,Cumulative number of hHF events (first+recurrent),recurrent events analysis,326
same,Patients who achieved glycaemic control at the end of the study irrespective of antidiabetic medication: %,study end,29.0%
same,Patients who achieved glycaemic control at the end of the study irrespective of antidiabetic medication: n,study end,1012
same,"Proportion achieving glycaemic control at study end without additional or increased antidiabetic medication vs placebo, in words",study end visit,significantly greater
same,"Risk of hHF vs placebo, in words",subgroup baseline SBP <140 mmHg,statistically lower risk of hHF
same,"Risk of hHF vs placebo, in words","subgroup enrolled from North America or Asia, listed as LINA",nominally significant reductions
same,"Risk of hHF vs placebo, in words","subgroup enrolled from North America or Asia, listed as linagliptin",Statistically significant lower risk of hHF
same,"Hospitalisation for heart failure vs placebo, in words",listed as LINA,nominally significant reduction
same,"Hospitalisation for heart failure vs placebo, in words",listed as linagliptin,favouring linagliptin in patients without insulin; also recorded: Statistically significant lower risk of hHF
same,"4P-MACE, CV death, all-cause mortality, and MI-related endpoints vs placebo, in words",tertiary endpoints,no significant differences
same,"Fatal and non-fatal stroke and transient ischaemic attack vs placebo, in words",tertiary endpoints,no significant differences
same,"hHF; CV death or hHF; all-cause mortality or hHF; heart failure AEs vs placebo, in words",tertiary endpoints,no significant differences
same,Severe hypoglycemic event (requiring assistance): %,treated population,3.0%
same,Severe hypoglycemic event (requiring assistance): N,treated population,106
same,"UACR vs placebo, in words",up to Week 132,statistically significant and clinically meaningful reduction
same,UACR: difference at week 36 (gMean ratio of relative change for linagliptin versus placebo),week 36,0.87
same,UACR: difference at week 84 (gMean ratio of relative change for linagliptin versus placebo),week 84,0.88
